Values of other authors in patent US5364629A, “Device and method for enhanced administration of physostigmine” (priority 1991, dated 1994).

Assays:
[1] = Davis, et al, Science, Volume 201, p. 272 (1978)
[2] = American Journal of Psychiatry, July 1979
[3] = tablets
[4] = early observation, myasthenia gravis background
[5] = systemic use

CNC(=O)Oc1ccc2c(c1)[C@]1(C)CCN(C)[C@@H]1N2C [Physostigmine, physostigmine]
retrieval of information from long-term memory [1]: retrieval of information from long-term memory was also improved
storage of information into long-term memory [1]: significantly enhanced storage of information into long-term memory
effect on tardive dyskinesia [2]: positive: therapeutic effect on tardive dyskinesia
drug blood levels for multiple oral doses [3]: ranging from a maximum above the required level (and possibly in the toxic range) to a minimum which may be below the effective dose
strength of muscular contraction [4]: increased strength of muscular contraction
therapeutic window [5]: narrow therapeutic window
